Test results as given in patent publication US5401761A, “Thiazolidinedione hypoglycemic agents” (Pfizer, Inc., priority 1993, dated 1995).

system: OB/OB MOUSE; assay: Hypoglycemic activity in the ob/ob mouse; format: in vivo, mouse (C57 BL/6J-ob/ob); conditions: ob/ob mouse; dosed daily for five days; positive control ciglitazone 50 mg/kg; X = H; 7200 min
From the text: The present compounds of the formula (I) are readily adapted to clinical use as hypoglycemic or hypocholesterolemic agents. The activity required for the former clinical use is defined by the test for hypoglycemic effect in ob/ob mice by the following procedure:
Five to eight week old C57 BL/6J-ob/ob mice (obtained from Jackson Laboratory, Bar Harbor, Me.) were housed five per cage under standard animal care practices. After a one week acclimation period, the animals were weighed and 25 microliters of blood was collected via an ocular bleed prior to any treatment. The blood sample was immediately diluted 1:5 with saline containing 2.5 mg/ml sodium fluoride and 2% sodium heparin, and held on ice for metabolite analysis. […] Bull., vol. […] All drugs were administered in a vehicle consisting of 0.25% w/v methyl cellulose. On day 5, the animals were weighed again and bled (via the ocular route) for blood metabolite levels. The freshly collected samples were centrifuged for two minutes at […] at room temperature. The supernatant was analyzed for glucose, for example, by the ABA 200 Bichromatic Analyzer™*, using the A-gent™^1 glucose UV reagent system*^2 (hexokinase method) using 20, 60 and 100 mg/dl standards. Plasma glucose was then calculated by the equation,
Test compounds are reported in terms of % glucose normalization. For example, a glucose level which is the same as the positive control is reported as 100%.

Compound | ED50 (Present Invention, X = H): concentration required to give hypoglycemic activity equivalent to 50% of the positive control [mg/kg]
Cc1cccc(-c2nc(Cc3cc4cc(CC5SC(=O)NC5=O)ccc4o3)c(C)o2)c1 (stereo not drawn) [m-methylphenyl, X = H, 5-[(2-(5-methyl-2-(3-methylphenyl)-4-oxazolyl)-methyl)-5-benzofuranylmethyl]2,4-thiazolidinedione] | < 0.005
Cc1ccc(-c2nc(Cc3cc4cc(CC5SC(=O)NC5=O)ccc4o3)c(C)o2)cc1 (stereo not drawn) [p-methylphenyl, X = H, 5-[(2-(5-methyl-2-(4-methylphenyl)-4-oxazolyl)-methyl)-5-benzofuranylmethyl]-2,4-thiazolidinedione] | 0.05
Cc1oc(C2CCCCC2)nc1Cc1cc2cc(CC3SC(=O)NC3=O)ccc2o1 (stereo not drawn) [cyclohexyl, X = H, 5-[(2-(2-cyclohexyl-5-methyl-4-oxazolyl)methyl)-5-benzofuranylmethyl]-2,4-thiazolidinedione] | 0.05
Cc1oc(-c2ccc(Cl)cc2)nc1Cc1cc2cc(CC3SC(=O)NC3=O)ccc2o1 (stereo not drawn) [p-chlorophenyl, X = H, 5-[(2-(2-(4-chlorophenyl)-5-methyl-4-oxazolyl)methyl)-5-benzofuranylmethyl]-2,4thiazolidinedione] | 0.05
Cc1ccccc1-c1nc(Cc2cc3cc(CC4SC(=O)NC4=O)ccc3o2)c(C)o1 (stereo not drawn) [o-methylphenyl, X = H] | 0.05
Cc1oc(-c2ccccc2F)nc1Cc1cc2cc(CC3SC(=O)NC3=O)ccc2o1 (stereo not drawn) [o-fluorophenyl, X = H, 5-[(2-(2-(2-fluorophenyl)-5-methyl-4-oxazolyl)methyl)-5-benzofuranylmethyl]-2,4-thiazolidinedione] | 0.01
Cc1oc(-c2cccc(F)c2)nc1Cc1cc2cc(CC3SC(=O)NC3=O)ccc2o1 (stereo not drawn) [m-fluorophenyl, X = H, 5-[(2-(2-(3-fluorophenyl)-5-methyl-4-oxazolyl)methyl)-5-benzofuranylmethyl]-2,4-thiazolidinedione] | 0.05
Cc1oc(C(C)(C)C)nc1Cc1cc2cc(CC3SC(=O)NC3=O)ccc2o1 (stereo not drawn) [tert-butyl, X = H, 5-[(2-(5-methyl-2-(1,1-dimethylethyl)-4-oxazolyl)-methyl)-5-benzofuranylmethyl]-2,4-thiazolidinedione] | 0.10
Cc1oc(-c2ccccc2)nc1Cc1cc2cc(CC3SC(=O)NC3=O)ccc2o1 (stereo not drawn) [phenyl, X = H, 5-[(2-(5-Methyl-2-phenyl-4-oxazolyl)methyl)-5-benzofuranylmethyl]-2,4-thiazolidinedione] | 0.01

same assay, conditions: ob/ob mouse; dosed daily for five days; positive control ciglitazone 50 mg/kg; X = OH; 7200 min

Compound | ED50 (EP 299620A, X = OH): concentration required to give hypoglycemic activity equivalent to 50% of the positive control [mg/kg]
Cc1ccccc1-c1nc(C(O)c2cc3cc(CC4SC(=O)NC4=O)ccc3o2)c(C)o1 (stereo not drawn) [o-methylphenyl, X = OH, reference compound] | > 1
Cc1oc(-c2cccc(F)c2)nc1C(O)c1cc2cc(CC3SC(=O)NC3=O)ccc2o1 (stereo not drawn) [m-fluorophenyl, X = OH, reference compound] | 0.50
Cc1oc(-c2ccccc2F)nc1C(O)c1cc2cc(CC3SC(=O)NC3=O)ccc2o1 (stereo not drawn) [o-fluorophenyl, X = OH, reference compound] | 0.50
Cc1cccc(-c2nc(C(O)c3cc4cc(CC5SC(=O)NC5=O)ccc4o3)c(C)o2)c1 (stereo not drawn) [m-methylphenyl, X = OH, reference compound] | 0.05 to 0.1
Cc1oc(-c2ccccc2)nc1C(O)c1cc2cc(CC3SC(=O)NC3=O)ccc2o1 (stereo not drawn) [phenyl, X = OH, 5-[(2-(5-Methyl-2-phenyl-4-oxazolyl)hydroxymethyl)-5-benzofuranylmethyl]-2,4-thiazolidinedione, reference compound] | 0.25

same assay, conditions: positive control (50 mg/kg) of ciglitazone, daily for five days; vehicle e.g. 250 mg/dl

Compound | glucose level of positive control animals [mg/dL]
CC1(COc2ccc(CC3SC(=O)NC3=O)cc2)CCCCC1 (stereo not drawn) [positive control, ciglitazone, reference compound] | ~130
